The record followed here is patent publication US8853420B2, “Compounds” (Boehringer Ingelheim International GmbH, priority 2008, dated 2014).

In general, remaining activity refers to the activity still measured, relative to the control.

In this experiment the target is T1, Xenopus laevis Aurora B/INCENP complex (Xenopus laevis, UniProt Q6DE08).
T1 construct: equipped at the N-terminal position with a GST tag (amino acids 60-361); GST (N, cleaved yes); made in house; host or cells: E. coli BL21 (DE3)
T1 sequence (Q6DE08 60-361): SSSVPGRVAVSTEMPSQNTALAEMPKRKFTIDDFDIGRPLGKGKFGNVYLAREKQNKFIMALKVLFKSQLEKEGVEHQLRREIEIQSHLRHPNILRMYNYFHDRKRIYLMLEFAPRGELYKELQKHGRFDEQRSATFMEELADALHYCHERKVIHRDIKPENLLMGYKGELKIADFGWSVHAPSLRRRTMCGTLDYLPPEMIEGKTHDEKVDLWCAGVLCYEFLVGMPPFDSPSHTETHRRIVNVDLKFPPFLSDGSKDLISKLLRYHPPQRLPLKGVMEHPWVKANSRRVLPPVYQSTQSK
T1 sequence (O13024 790-847 partner limits assumed): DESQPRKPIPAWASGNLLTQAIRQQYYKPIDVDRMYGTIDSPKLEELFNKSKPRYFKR
Put plainly: Aurora-B kinase assay (radioactive enzyme inhibition assay). It counts as biochemical. To be noted: test substance at 1 μM; percentage of the positive control (maximum value without test substance).
With `CN1CCN(c2ccc(N/C(=C3\C(=O)Nc4cc(C#CC(=O)NC5CCC5)c(S(=O)(=O)N5CCC(F)(F)C5)cc43)c3ccccc3)cc2)CC1` [Example 154], the remaining activity at 1 µM is 2.62%.

Regarding `CC(C)Nc1ncc(-c2ccc3c(c2)NC(=O)/C3=C(\Nc2ccc(N3CCN(C)CC3)nc2)c2ccccc2)cn1` [Example 86], the remaining activity at 1 µM was 16.8%.

Take `CC(C)Nc1ccc(-c2ccc3c(c2)NC(=O)/C3=C(\Nc2ccc(C(=O)N3CCCN(C)CC3)cc2)c2ccccc2)cn1` [Example 120]: the remaining activity at 1 µM was 2.75%.

Take `CC(C)Nc1ccc(-c2ccc3c(c2)NC(=O)/C3=C(\Nc2ccc(C(=O)N3C[C@@H](C)N[C@@H](C)C3)cc2)c2ccccc2)cn1` [Example 124]: the remaining activity at 1 µM is 3.38%.

For `CN(C)Cc1ccc(N/C(=C2\C(=O)Nc3cc(-c4cccc(C(N)=O)c4)ccc32)c2ccccc2)cc1` [Example 68], the remaining activity at 1 µM is 18.1%.

Turning to `CC(C)NC(=O)C#Cc1cc2c(cc1S(=O)(=O)N1CC(F)(F)C1)/C(=C(/Nc1ccc(N3CCN(C)CC3)cc1)c1ccccc1)C(=O)N2` [Example 156], the remaining activity at 1 µM is 3.02%.

Consider `Cc1ccc(-c2ccc3c(c2)NC(=O)/C3=C(\Nc2ccc(CN(C)C)cc2)c2ccccc2)cn1` [Example 17], for which the remaining activity at 1 µM amounted to 21.1%.
